# Assays:
# monoamine oxidase-A = biological target: T1, monoamine oxidase-A (Rattus norvegicus, UniProt P21396); experiment: in vitro inhibition of monoamine oxidase assay (modified Kindt), MAO-A; type: biochemical, Male Wistar rats; conditions: rat whole brain minus cerebellum, mitochondrial P2 pellet; substrate [3H]-5-hydroxytryptamine 200 µM; preincubated 15 minutes, incubated 30 minutes at 37°C; log-probit analysis
# T1 construct: serves as the tissue source for mitochondrial monoamine oxidase; from tissue; host or cells: rat whole brain minus cerebellum, P2 (crude mitochondrial) pellet
# T1 sequence (P21396 1-526): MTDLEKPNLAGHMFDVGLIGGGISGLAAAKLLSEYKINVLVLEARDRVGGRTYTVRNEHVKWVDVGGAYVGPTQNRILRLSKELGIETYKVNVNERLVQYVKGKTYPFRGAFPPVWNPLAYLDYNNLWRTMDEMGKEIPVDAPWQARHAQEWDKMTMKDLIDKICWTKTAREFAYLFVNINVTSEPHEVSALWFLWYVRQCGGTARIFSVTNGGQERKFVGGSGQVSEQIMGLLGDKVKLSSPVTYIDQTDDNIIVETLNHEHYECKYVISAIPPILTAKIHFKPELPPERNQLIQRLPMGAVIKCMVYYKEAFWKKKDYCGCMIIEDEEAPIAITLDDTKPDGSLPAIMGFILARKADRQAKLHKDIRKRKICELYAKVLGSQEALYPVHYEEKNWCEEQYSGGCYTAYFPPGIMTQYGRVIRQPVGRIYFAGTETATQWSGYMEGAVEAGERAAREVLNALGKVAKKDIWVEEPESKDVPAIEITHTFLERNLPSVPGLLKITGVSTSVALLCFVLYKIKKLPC
# Description: (§1) In this assay, a modification of an assay described by M. V. Kindt, et al., Europ.
# The following reagents are prepared: • 1. Phosphate buffer (0.5 M), pH 7.4; 134.4 g dibasic sodium phosphate heptahydrate q.s. to 1 liter in distilled water (A) 17.3 g monobasic sodium phosphate q.s. to 250 ml in distilled water (B) Adjust pH of A to 7.4 by slowly adding B (volumes as needed) Dilute 1:10 in distilled water (0.05 M phosphate buffer, pH 7.4) • 2. 0.25 M Sucrose (phosphate buffered): 21.4 g sucrose, q.s. to 250 ml with 0.05 M phosphate buffer • 3. Substrate for monoamine oxidase-A: • a. serotonin creatine sulphate (5-hydroxytryptamine) is obtained from Sigma Chemical Company. A 5 mM stock solution is made up in 0.01 N-hydrochloric acid. The solution is used to dilute the specific activity of the [^3H]-hydroxytryptamine. • b. [^3H]-5-hydroxytryptamine binoxalate (20-30 Ci/mmol) is obtained from New England Nuclear. • c. Add 12 µl of [^3H]-5-hydroxytryptamine to 2 ml of the 5 mM 5-hydroxytryptamine solution. (Final amine concentration in the assay is 200 µM: see below.) • 4. Substrate for monoamine oxidase-B • a. β-phenethylamine is obtained from Sigma Chemical Company. A 5 mM stock solution is made up in 0.01 N-hydrochloric acid. The solution is used to dilute the specific activity of the [^14C]-β-phenethylamine. • b. β-[ethyl-1-^14C]-phenethylamine hydrochloride (40-50 mCi/mmol) is obtained from New England Nuclear. • c. Add 12 µl of [^14C]-β-phenethylamine to 2 ml of the 5 mM β-phenethylamine solution. (Final amine concentration in the assay is 200 µM: see below.) • 5. Equal amounts of monoamine oxidase-A (5-hydroxytryptamine) and monoamine oxidase-B (β-phenethylamine) substrates are combined for simultaneously testing both monoamine oxidase types, i.e., mixed stock solution of 2.5 mM 5-hydroxytryptamine and 2.5 mM β-phenethylamine. 40 µl of this mixed solution gives a 200 µM final concentration of each amine in the assay. […]
# acetylcholinesterase = biological target: T2, acetylcholinesterase (Rattus norvegicus, UniProt P37136); experiment: biochemical; design: species or system Male Wistar rats; conditions: rat corpora striata homogenate; preincubated 10 minutes at 37°C; acetylthiocholine substrate 5 millimolar final; log-probit analysis; read-out: Inhibition of Acetylcholinesterase Activity IC50
# T2 construct: corpora striata dissected free, weighted and homogenized in 19 volumes; from tissue; host or cells: rat brain corpora striata, crude homogenate
# T2 sequence (P37136 32-614): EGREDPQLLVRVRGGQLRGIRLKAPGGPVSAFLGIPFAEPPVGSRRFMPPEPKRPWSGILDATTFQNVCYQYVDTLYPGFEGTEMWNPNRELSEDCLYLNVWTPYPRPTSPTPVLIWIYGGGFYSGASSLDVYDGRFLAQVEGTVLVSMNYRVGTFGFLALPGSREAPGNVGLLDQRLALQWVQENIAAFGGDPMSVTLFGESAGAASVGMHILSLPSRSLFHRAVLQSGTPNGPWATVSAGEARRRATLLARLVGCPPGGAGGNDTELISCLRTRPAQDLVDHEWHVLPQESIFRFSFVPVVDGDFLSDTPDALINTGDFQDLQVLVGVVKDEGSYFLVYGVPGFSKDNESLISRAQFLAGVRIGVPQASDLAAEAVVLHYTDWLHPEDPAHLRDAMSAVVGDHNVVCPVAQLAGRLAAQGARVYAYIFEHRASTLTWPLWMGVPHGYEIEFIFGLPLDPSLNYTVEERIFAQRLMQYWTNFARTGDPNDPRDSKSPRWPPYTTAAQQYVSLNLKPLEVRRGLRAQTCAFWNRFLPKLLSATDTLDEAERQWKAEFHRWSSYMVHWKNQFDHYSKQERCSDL
# Description: 0.05M Phosphate Buffer (pH 7.2) A solution of monobasic sodium phosphate monohydrate (6.85 g) in distilled water (100 ml) is added to a solution of dibasic sodium phosphate heptahydrate (13.4 g) and distilled water (100 ml) until a pH of 7.2 was attained. The solution was diluted 1 to 10 with distilled water. • 2. […] 5,5-Dithiobisnitrobenzoic acid in Buffer The 0.05M Phosphate Buffer (pH 7.2) was added to 5.5-dithiobisnitrobenzoic acid to a total volume of 100 ml, i.e., a quantity sufficient (gs) to 100 ml. • 4. Stock Solution of Drug A 2 millimolar stock solution of the test drug is prepared in a quantity sufficient of either acetic acid or dimethyl sulfoxide to volume with 5,5-dithiobisnitrobenzoic acid in Buffer. […]
# Male Wistar rats are decapitated, brains rapidly removed, corpora striata dissected free, weighted and homogenized in 19 volumes (approximately 7 mg protein/ml) of 0.05M Phosphate Buffer (pH 7.2) using a Potter-Elvejhem homogenizer. […] Enzyme activity is measured with a Beckman DU-50 spectrophotometer with the following software and instrument settings: • 1. […]
# Blank values are determined for each run to control for non-enzymatic hydrolysis of substrate and these values are automatically subtracted by the Kindata program available on kinetics soft-pac module. This program also calculates the rate of absorbance change for each cuvette. […]
# monoamine oxidase-B = biological target: T3, monoamine oxidase-B (Rattus norvegicus, UniProt P19643); experiment: in vitro inhibition of monoamine oxidase assay (modified Kindt), MAO-B; type: biochemical, Male Wistar rats; conditions: rat whole brain minus cerebellum, mitochondrial P2 pellet; substrate [14C]-β-phenethylamine 200 µM; preincubated 15 minutes, incubated 30 minutes at 37°C; log-probit analysis
# T3 construct: serves as the tissue source for mitochondrial monoamine oxidase; from tissue; host or cells: rat whole brain minus cerebellum, P2 (crude mitochondrial) pellet
# T3 sequence (P19643 1-520): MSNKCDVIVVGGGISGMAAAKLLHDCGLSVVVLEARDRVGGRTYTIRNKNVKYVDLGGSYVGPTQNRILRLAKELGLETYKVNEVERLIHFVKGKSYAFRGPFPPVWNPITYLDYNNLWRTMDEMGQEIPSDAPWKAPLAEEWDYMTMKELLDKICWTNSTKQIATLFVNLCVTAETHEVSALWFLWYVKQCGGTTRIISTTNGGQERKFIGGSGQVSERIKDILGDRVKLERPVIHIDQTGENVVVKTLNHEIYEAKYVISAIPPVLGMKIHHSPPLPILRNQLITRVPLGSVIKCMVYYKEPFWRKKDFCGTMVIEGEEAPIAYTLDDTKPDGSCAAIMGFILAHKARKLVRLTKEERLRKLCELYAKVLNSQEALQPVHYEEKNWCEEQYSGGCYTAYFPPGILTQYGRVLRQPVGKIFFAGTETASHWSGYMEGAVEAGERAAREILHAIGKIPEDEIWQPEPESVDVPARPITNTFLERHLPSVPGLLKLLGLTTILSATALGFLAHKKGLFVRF
# Description: as §1
# The following reagents are prepared: • 1. Phosphate buffer (0.5 M), pH 7.4; 134.4 g dibasic sodium phosphate heptahydrate q.s. to 1 liter in distilled water (A) 17.3 g monobasic sodium phosphate q.s. to 250 ml in distilled water (B) Adjust pH of A to 7.4 by slowly adding B (volumes as needed) Dilute 1:10 in distilled water (0.05 M phosphate buffer, pH 7.4) • 2. 0.25 M Sucrose (phosphate buffered): 21.4 g sucrose, q.s. to 250 ml with 0.05 M phosphate buffer • 3. Substrate for monoamine oxidase-A: • a. serotonin creatine sulphate (5-hydroxytryptamine) is obtained from Sigma Chemical Company. A 5 mM stock solution is made up in 0.01 N-hydrochloric acid. The solution is used to dilute the specific activity of the [^3H]-hydroxytryptamine. • b. [^3H]-5-hydroxytryptamine binoxalate (20-30 Ci/mmol) is obtained from New England Nuclear. • c. Add 12 µl of [^3H]-5-hydroxytryptamine to 2 ml of the 5 mM 5-hydroxytryptamine solution. (Final amine concentration in the assay is 200 µM: see below.) • 4. Substrate for monoamine oxidase-B • a. β-phenethylamine is obtained from Sigma Chemical Company. A 5 mM stock solution is made up in 0.01 N-hydrochloric acid. […]
SMILES,IC50 (monoamine oxidase-A),IC50 (acetylcholinesterase),IC50 (monoamine oxidase-B)
"COc1cccc(CN2CCC3(CCc4c3n(C)c3ccccc43)CC2)c1 [1,4-Dihydro-1'-(3-methoxyphenyl)methyl-4-methylspiro[cyclopent[b]indole-3(2H), 4'piperidine]]",51.2 µM,–,–
"COc1ccc(CN2CCC3(CCc4c3n(C)c3ccccc43)CC2)cc1 [1,4-Dihydro-1'-(4-methoxyphenyl)methyl-4-methylspiro[cyclopent[b]indole-3(2H), 4'-piperidine]]",98.6 µM,65.2 µM,125 µM
"CNC(=O)Oc1ccc2c(c1)c1c(n2C)C2(CC1)CCN(Cc1ccccc1)CC2 [1,4-Dihydro-4-methyl-7-methylaminocarbonyloxy-1'-phenylmethylspiro[cyclopent[b]indole-3(2H), 4'-piperidine]]",–,10.5 µM,–
"COc1cc(Br)c2oc(C3CCNCC3)cc2c1 [brofaromine, reference compound]",0.18 µM,–,–
